According to ChEMBL document CHEMBL3621049, “Imidazole derivatives show anticancer potential by inducing apoptosis and cellular senescence” (2014):
Activity calls are given as the source filed them.

Columns and labels:
Format in all cases: functional, cell-based
BT-549 = experiment: Growth inhibition of human BT549 cells at 10 uM by sulforhodamine B assay
A498 = experiment: Growth inhibition of human A498 cells at 10 uM by sulforhodamine B assay
PC-3 = experiment: Growth inhibition of human PC3 cells at 10 uM by sulforhodamine B assay
UO-31 = experiment: Growth inhibition of human UO31 cells at 10 uM by sulforhodamine B assay
KM12 = experiment: Growth inhibition of human KM12 cells at 10 uM by sulforhodamine B assay
A549 = experiment: Growth inhibition of human A549/ATCC cells at 10 uM by sulforhodamine B assay
NCI/ADR-RES = experiment: Growth inhibition of human NCI/ADR-RES cells at 10 uM by sulforhodamine B assay
NCI-H226 = experiment: Growth inhibition of human NCI-H226 cells at 10 uM by sulforhodamine B assay
SW-620 = experiment: Growth inhibition of human SW620 cells at 10 uM by sulforhodamine B assay
Malme-3M = experiment: Growth inhibition of human MALME-3M cells at 10 uM by sulforhodamine B assay
CCRF-CEM = experiment: Growth inhibition of human CCRF-CEM cells at 10 uM by sulforhodamine B assay
OVCAR-5 = experiment: Growth inhibition of human OVCAR5 cells at 10 uM by sulforhodamine B assay
RXF 393 = experiment: Growth inhibition of human RXF393 cells at 10 uM by sulforhodamine B assay
OVCAR-8 = experiment: Growth inhibition of human OVCAR8 cells at 10 uM by sulforhodamine B assay
ACHN = experiment: Growth inhibition of human ACHN cells at 10 uM by sulforhodamine B assay
RPMI-8226 = experiment: Growth inhibition of human RPMI8226 cells at 10 uM by sulforhodamine B assay
HL-60(TB) = experiment: Growth inhibition of human HL-60(TB) cells at 10 uM by sulforhodamine B assay
SF-268 = experiment: Growth inhibition of human SF268 cells at 10 uM by sulforhodamine B assay
SK-MEL-5 = experiment: Growth inhibition of human SK-MEL-5 cells at 10 uM by sulforhodamine B assay
UACC-257 = experiment: Growth inhibition of human UACC257 cells at 10 uM by sulforhodamine B assay
LOX IMVI = experiment: Growth inhibition of human LOXIMVI cells at 10 uM by sulforhodamine B assay
Hs-578T = experiment: Growth inhibition of human Hs 578T cells at 10 uM by sulforhodamine B assay
OVCAR-4 = experiment: Growth inhibition of human OVCAR4 cells at 10 uM by sulforhodamine B assay
HCT-116 = experiment: Growth inhibition of human HCT116 cells at 10 uM by sulforhodamine B assay
HT-29 = experiment: Growth inhibition of human HT-29 cells at 10 uM by sulforhodamine B assay
MDA-MB-468 = experiment: Growth inhibition of human MDA-MB-468 cells at 10 uM by sulforhodamine B assay
TK-10 = experiment: Growth inhibition of human TK10 cells at 10 uM by sulforhodamine B assay
CAKI-1 = experiment: Growth inhibition of human Caki1 cells at 10 uM by sulforhodamine B assay
T47D = experiment: Growth inhibition of human T47D cells at 10 uM by sulforhodamine B assay
SK-MEL-2 = experiment: Growth inhibition of human SK-MEL-2 cells at 10 uM by sulforhodamine B assay
SK-OV-3 = experiment: Growth inhibition of human SKOV3 cells at 10 uM by sulforhodamine B assay
SF-295 = experiment: Growth inhibition of human SF295 cells at 10 uM by sulforhodamine B assay
HOP-62 = experiment: Growth inhibition of human HOP62 cells at 10 uM by sulforhodamine B assay
MDA-MB-435 = experiment: Growth inhibition of human MDA-MB-435 cells at 10 uM by sulforhodamine B assay
MOLT-4 = experiment: Growth inhibition of human MOLT4 cells at 10 uM by sulforhodamine B assay
SN12C = experiment: Growth inhibition of human SN12C cells at 10 uM by sulforhodamine B assay
SR = experiment: Growth inhibition of human SR cells at 10 uM by sulforhodamine B assay
IGROV-1 = experiment: Growth inhibition of human IGROV1 cells at 10 uM by sulforhodamine B assay
MDA-MB-231 = experiment: Growth inhibition of human MDA-MB-231 cells at 10 uM by sulforhodamine B assay
UACC-62 = experiment: Growth inhibition of human UACC62 cells at 10 uM by sulforhodamine B assay
HOP-92 = experiment: Growth inhibition of human HOP92 cells at 10 uM by sulforhodamine B assay
HCC 2998 = experiment: Growth inhibition of human HCC2998 cells at 10 uM by sulforhodamine B assay
NCI-H460 = experiment: Growth inhibition of human NCI-H460 cells at 10 uM by sulforhodamine B assay
DU-145 = experiment: Growth inhibition of human DU145 cells at 10 uM by sulforhodamine B assay
SF-539 = experiment: Growth inhibition of human SF539 cells at 10 uM by sulforhodamine B assay
M14 = experiment: Growth inhibition of human M14 cells at 10 uM by sulforhodamine B assay
MCF7 = experiment: Growth inhibition of human MCF7 cells at 10 uM by sulforhodamine B assay
NCI-H23 = experiment: Growth inhibition of human NCI-H23 cells at 10 uM by sulforhodamine B assay
COLO 205 = experiment: Growth inhibition of human COLO205 cells at 10 uM by sulforhodamine B assay
786-0 = experiment: Growth inhibition of human 786-0 cells at 10 uM by sulforhodamine B assay
K562 = experiment: Growth inhibition of human K562 cells at 10 uM by sulforhodamine B assay
NCI-H322M = experiment: Growth inhibition of human NCI-H322M cells at 10 uM by sulforhodamine B assay
SNB-75 = experiment: Growth inhibition of human SNB75 cells at 10 uM by sulforhodamine B assay
HCT-15 = experiment: Growth inhibition of human HCT15 cells at 10 uM by sulforhodamine B assay
U-251 = experiment: Growth inhibition of human U251 cells at 10 uM by sulforhodamine B assay
NCI-H522 = experiment: Growth inhibition of human NCI-H522 cells at 10 uM by sulforhodamine B assay
SK-MEL-28 = experiment: Growth inhibition of human SK-MEL-28 cells at 10 uM by sulforhodamine B assay
SNB-19 = experiment: Growth inhibition of human SNB19 cells at 10 uM by sulforhodamine B assay
OVCAR-3 = experiment: Growth inhibition of human OVCAR3 cells at 10 uM by sulforhodamine B assay

Measured: growth inhibition (GI)

COc1cc(-c2nc(-c3ccccc3)c(-c3ccccc3)n2C2CCCCC2)ccc1OC1CCCC1
active: all assays above
